# Assays:
# Format in all cases: cell-based
# Aspergillus terreus AT4 [1] = assay: MIC, RPMI medium; conditions: for MIC: Aspergillus terreus, AT4, MIC banded into grades, read-out: MIC grade, A. terreus; for MIC grade, A. terreus: MIC banded into grades
# Method in brief: (§1)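 Fungi are tested in RPMI buffered with 0.135 M MOPS (pH 7.0) plus 2% glucose, inoculum 1−2×10^4 cfu/mL, against doubling compound dilutions spanning 50-0.05 mg/L. After 24-48 h at 35° C, the MIC is the lowest concentration suppressing growth by >80% against drug-free control.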
# Aspergillus niger [2] = assay: MIC, RPMI medium; conditions: MIC banded into grades; for MIC: Aspergillus niger, read-out: MIC grade, A. niger
# Method in brief: as §1
# Aspergillus terreus AT49 [3] = assay: MIC, RPMI medium; conditions: for MIC: Aspergillus terreus, AT49, MIC banded into grades, read-out: MIC grade, A. terreus 49; for MIC grade, A. terreus 49: MIC banded into grades
# Method in brief: as §1
# Aspergillus flavus [4] = assay: MIC, RPMI medium; conditions: MIC banded into grades; for MIC: Aspergillus flavus, read-out: MIC grade, A. flavus
# Method in brief: as §1
# [5] = system: Aspergillus fumigatus AF210; assay: MIC, RPMI medium; conditions: for MIC: Aspergillus fumigatus, AF210, MIC banded into grades, read-out: MIC grade, A. fumigatus 210; for MIC grade, A. fumigatus 210: MIC banded into grades
# Method in brief: as §1
# [6] = system: Aspergillus fumigatus AF293; assay: MIC, RPMI medium; conditions: for MIC: Aspergillus fumigatus, AF293, MIC banded into grades, read-out: MIC grade, A. fumigatus; for MIC grade, A. fumigatus: MIC banded into grades
# Method in brief: as §1
# Aspergillus terreus AT4 [7] = assay: MIC, YAG medium; conditions: 24 h at 35° C, MIC banded into grades; for MIC: Aspergillus terreus, read-out: MIC grade, A. terreus
# Method in brief: (§2)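 OD 485 nm read-out after 24 h at 35° C; MIC = lowest concentration inhibiting growth >70% vs drug-free control, in mg/L. Inoculum 1−2×10^4 cfu/mL in YAG medium; drug range 50-0.05 mg/L, retested at 0.5-0.0005 mg/L when needed.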
# Aspergillus niger [8] = assay: MIC, YAG medium; conditions: 24 h at 35° C, MIC banded into grades; for MIC: Aspergillus niger, read-out: MIC grade, A. niger
# Method in brief: as §2
# Aspergillus terreus AT49 [9] = assay: MIC, YAG medium; conditions: 24 h at 35° C, MIC banded into grades; for MIC: Aspergillus terreus, read-out: MIC grade, A. terreus 49
# Method in brief: as §2
# Aspergillus flavus [10] = assay: MIC, YAG medium; conditions: 24 h at 35° C, MIC banded into grades; for MIC: Aspergillus flavus, 24 h, read-out: MIC grade, A. flavus
# Method in brief: as §2
# [11] = system: Aspergillus fumigatus AF210; assay: MIC, YAG medium; conditions: 24 h at 35° C, MIC banded into grades; for MIC: Aspergillus fumigatus, read-out: MIC grade, A. fumigatus 210
# Method in brief: as §2
# [12] = system: Aspergillus fumigatus AF293; assay: MIC, YAG medium; conditions: 24 h at 35° C, MIC banded into grades; for MIC: Aspergillus fumigatus, read-out: MIC grade, A. fumigatus
# Method in brief: as §2
Compound,MIC (Aspergillus terreus AT4 [1]) [µg/mL],MIC (Aspergillus niger [2]) [µg/mL],MIC (Aspergillus terreus AT49 [3]) [µg/mL],MIC (Aspergillus flavus [4]) [µg/mL],MIC [5] [µg/mL],MIC [6] [µg/mL],MIC (Aspergillus terreus AT4 [7]) [µg/mL],MIC (Aspergillus niger [8]) [µg/mL],MIC (Aspergillus terreus AT49 [9]) [µg/mL],MIC (Aspergillus flavus [10]) [µg/mL],MIC [11] [µg/mL],MIC [12] [µg/mL],also measured
"COCCn1cc(-c2cccc(Cl)c2)cc1C(=O)C(=O)Nc1ccc(N2CCN(c3cc(C)cc(C)n3)CC2)cc1 [Example 71, 2-[4-(3-Chloro-phenyl)-1-(2-methoxy-ethyl)-1H-pyrrol-2-yl]-N-{4-[4-(4,6-dimethyl-pyridin-2-yl)-piperazin-1-yl]-phenyl}-2-oxo-acetamide]",> 10,> 10,> 10,> 10,> 10,> 10,> 10,> 10,1 to 10,> 10,> 10,> 10,–
"Cc1cc(C)nc(N2CCN(c3ccc(NC(=O)C(=O)c4c(-c5ccccc5)ccn4C)cc3)CC2)c1 [Example 45, N-{4-[4-(4,6-Dimethyl-pyridin-2-yl)-piperazin-1-yl]-phenyl}-2-(1-methyl-3-phenyl-1H-pyrrol-2-yl)-2-oxo-acetamide]",< 1,< 1,< 1,< 1,< 1,< 1,< 1,< 1,< 1,< 1,< 1,< 1,–
"Cc1cc(C)nc(N2CCN(c3ccc(NC(=O)C(=O)c4c(-c5ccccc5)cc(C)n4C(C)C)cc3)CC2)c1 [Example 8, N-{4-[4-(4,6-Dimethyl-pyridin-2-yl)-piperazin-1-yl]-phenyl}-2-(1-isopropyl-5-methyl-3-phenyl-1H-pyrrol-2-yl)-2-oxo-acetamide]",1 to 10,1 to 10,1 to 10,> 10,1 to 10,1 to 10,1 to 10,< 1,1 to 10,1 to 10,< 1,< 1,–
"COC(=O)Cn1c(C)cc(-c2ccccc2)c1C(=O)C(=O)Nc1ccc(N2CCN(c3cc(C)cc(C)n3)CC2)cc1Cl [Example 98, (2-{2-Chloro-4-[4-(4,6-dimethyl-pyridin-2-yl)-piperazin-1-yl]-phenylaminooxalyl}-5-methyl-3-phenyl-pyrrol-1-yl)-acetic acid methyl ester]",–,–,–,–,–,–,–,–,–,–,–,–,"MIC grade, A. terreus (Aspergillus terreus AT4 [1]): 3 (A grade of 3 represents an MIC of less than 1 mg/L); MIC grade, A. niger (Aspergillus niger [2]): 3 (A grade of 3 represents an MIC of less than 1 mg/L); MIC grade, A. terreus 49 (Aspergillus terreus AT49 [3]): 3 (A grade of 3 represents an MIC of less than 1 mg/L); MIC grade, A. flavus (Aspergillus flavus [4]): 2 (A grade of 2 represents an MIC of from 1 to 10 mg/L); MIC grade, A. fumigatus 210 [5]: 3 (A grade of 3 represents an MIC of less than 1 mg/L); MIC grade, A. fumigatus [6]: 3 (A grade of 3 represents an MIC of less than 1 mg/L); MIC grade, A. terreus (Aspergillus terreus AT4 [7]): 3 (A grade of 3 represents an MIC of less than 1 mg/L); MIC grade, A. niger (Aspergillus niger [8]): 3 (A grade of 3 represents an MIC of less than 1 mg/L); MIC grade, A. terreus 49 (Aspergillus terreus AT49 [9]): 3 (A grade of 3 represents an MIC of less than 1 mg/L); MIC grade, A. flavus (Aspergillus flavus [10]): 1 (a grade of 1 represents an MIC of greater than 10 mg/L); MIC grade, A. fumigatus 210 [11]: 3 (A grade of 3 represents an MIC of less than 1 mg/L); MIC grade, A. fumigatus [12]: 3 (A grade of 3 represents an MIC of less than 1 mg/L)"
Cc1cc(C)nc(N2CCN(c3ccc(NC(=O)C(=O)c4c(-c5ccccc5)cc5n4CCCCC5)cc3)CC2)c1 [41 a],–,–,–,–,–,–,–,–,–,–,–,–,"MIC grade, A. terreus (Aspergillus terreus AT4 [1]): 2 (A grade of 2 represents an MIC of from 1 to 10 mg/L); MIC grade, A. niger (Aspergillus niger [2]): 1 (a grade of 1 represents an MIC of greater than 10 mg/L); MIC grade, A. terreus 49 (Aspergillus terreus AT49 [3]): 3 (A grade of 3 represents an MIC of less than 1 mg/L); MIC grade, A. flavus (Aspergillus flavus [4]): 1 (a grade of 1 represents an MIC of greater than 10 mg/L); MIC grade, A. fumigatus 210 [5]: 1 (a grade of 1 represents an MIC of greater than 10 mg/L); MIC grade, A. fumigatus [6]: 2 (A grade of 2 represents an MIC of from 1 to 10 mg/L); MIC grade, A. terreus (Aspergillus terreus AT4 [7]): 3 (A grade of 3 represents an MIC of less than 1 mg/L); MIC grade, A. niger (Aspergillus niger [8]): 3 (A grade of 3 represents an MIC of less than 1 mg/L); MIC grade, A. terreus 49 (Aspergillus terreus AT49 [9]): 3 (A grade of 3 represents an MIC of less than 1 mg/L); MIC grade, A. flavus (Aspergillus flavus [10]): 3 (A grade of 3 represents an MIC of less than 1 mg/L); MIC grade, A. fumigatus 210 [11]: 3 (A grade of 3 represents an MIC of less than 1 mg/L); MIC grade, A. fumigatus [12]: 3 (A grade of 3 represents an MIC of less than 1 mg/L)"

# Further lines, with some results ahead:
MIC (Aspergillus terreus AT4 [1]) [µg/mL],MIC (Aspergillus niger [2]) [µg/mL],MIC (Aspergillus terreus AT49 [3]) [µg/mL],MIC (Aspergillus flavus [4]) [µg/mL],MIC [5] [µg/mL],MIC [6] [µg/mL],MIC (Aspergillus terreus AT4 [7]) [µg/mL],MIC (Aspergillus niger [8]) [µg/mL],MIC (Aspergillus terreus AT49 [9]) [µg/mL],MIC (Aspergillus flavus [10]) [µg/mL],MIC [11] [µg/mL],MIC [12] [µg/mL],Compound,also measured
> 10,1 to 10,> 10,> 10,> 10,< 1,1 to 10,1 to 10,1 to 10,1 to 10,< 1,< 1,"Cc1cc(C)nc(N2CCN(c3ccc(NC(=O)C(=O)c4c(-c5ccccc5)cc(C)n4Cc4coc(C)n4)cc3)CC2)c1 [Example 146, N-{4-[4-(4,6-Dimethyl-pyridin-2-yl)-piperazin-1-yl]-phenyl}-2-[5-methyl-1-(2-methyl-oxazol-4-ylmethyl)-3-phenyl-1H-pyrrol-2-yl]-2-oxo-acetamide]",–
> 10,> 10,> 10,> 10,> 10,> 10,> 10,> 10,> 10,> 10,> 10,> 10,"COCCc1cc(C)n(-c2ccccc2)c1C(=O)C(=O)Nc1ccc(N2CCN(c3cc(C)cc(C)n3)CC2)cc1 [Example 80, N-{4-[4-(4,6-Dimethyl-pyridin-2-yl)-piperazin-1-yl]-phenyl}-2-[3-(2-methoxy-ethyl)-5-methyl-1-phenyl-1H-pyrrol-2-yl]-2-oxo-acetamide]",–
< 1,< 1,< 1,< 1,> 10,> 10,< 1,< 1,< 1,< 1,1 to 10,> 10,"Cc1cc(-c2ccccc2)c(C(=O)C(=O)Nc2cccc3c(F)cccc23)n1C [Example 127, 2-(1,5-Dimethyl-3-phenyl-1H-pyrrol-2-yl)-N-(5-fluoro-naphthalen-1-yl)-2-oxo-acetamide]",–
> 10,> 10,> 10,> 10,> 10,> 10,> 10,> 10,1 to 10,> 10,1 to 10,1 to 10,"Cc1cc(C)nc(N2CCN(c3ccc(NC(=O)C(=O)c4c(-c5ccccc5)cc(C)n4Cc4ccccn4)cc3)CC2)c1 [Example 91, N-{4-[4-(4,6-Dimethyl-pyridin-2-yl)-piperazin-1-yl]-phenyl}-2-(5-methyl-3-phenyl-1-pyridin-2-ylmethyl-1H-pyrrol-2-yl)-2-oxo-acetamide]",–
> 10,> 10,> 10,> 10,> 10,> 10,> 10,> 10,> 10,> 10,> 10,1 to 10,"Cc1cc(C)nc(N2CCN(c3ccc(NC(=O)C(=O)c4c(-c5ccccc5)cc(C)n4Cc4ccncc4)cc3)CC2)c1 [Example 102, N-{4-[4-(4,6-Dimethyl-pyridin-2-yl)-piperazin-1-yl]-phenyl}-2-(5-methyl-3-phenyl-1-pyridin-4-ylmethyl-1H-pyrrol-2-yl)-2-oxo-acetamide]",–

# Source: US8993574B2, “Pyrrole antifungal agents” (F2G Ltd, priority 2008, dated 2015)
